Entries after “also recorded” stand apart in the source; their conditions may differ. Where two headings read alike, the source gives them in different places.
Key:
[1] = rat, in vivo, iv; cited from earlier work
Male C57BL/6 mice = assay: Cisplatin-induced nephrotoxicity in mice; assay type: in vivo
Experimental: (§1) Male C57BL/6 mice were given a single intraperitoneal injection of 20 mg/kg of cisplatin. Twenty micrograms of PACAP38 were given intraperitoneally 1 hour before the injection of cisplatin and additional doses were given at 24 and 48 hours after the initial dose. The control group of mice was injected intraperitoneally with the same volume of saline as for the injections of cisplatin and PACAP38 on the same schedule. The mice were euthanized 24 hours after the final injection of PACAP38. The serum creatinine levels were determined at sacrifice with isotope dilution liquid chromatography mass spectroscopy/mass spectroscopy. Each value represents the mean plus/minus the standard error of eight determinations. ** p<0.01 compared to the group treated only with cisplatin.
as §1, with “cystatin C” for “creatinine”, “commercial ELISA kits.” for “isotope dilution liquid chromatography mass spectroscopy/mass spectroscopy.”
as §1, with “body weights of the mice” for “serum creatinine levels”, “determined 1-2 hours before the first injection of PACAP38 and” for “determined”, “sacrifice.” for “sacrifice with isotope dilution liquid chromatography mass spectroscopy/mass spectroscopy.”, “p<0.01 and * p<0.05” for “p<0.01”
as §1, with “kidney” for “serum creatinine”, “levels of TNF-α” for “levels”, “commercial ELISA kits.” for “isotope dilution liquid chromatography mass spectroscopy/mass spectroscopy.”
as §1, with “kidney” for “serum creatinine”, “levels of IFN-γ” for “levels”, “commercial ELISA kits.” for “isotope dilution liquid chromatography mass spectroscopy/mass spectroscopy.”, “p<0.01 and * p<0.05” for “p<0.01”
Male C57BL/6 mice were given a single intraperitoneal injection of 20 mg/kg of cisplatin. Twenty micrograms of PACAP38 were given intraperitoneally 1 hour before the injection of cisplatin and additional doses were given at 24 and 48 hours after the initial dose. […]

rat = conditions: 48 hours after start, cited from earlier work
[2] = cisplatin 20 mg/kg i.p., 20 micrograms peptide i.p. 1 h before and 24 and 48 h after, ELISA at sacrifice

Substance | half-life in the bloodstream [1] | cytoprotection against cisplatin-induced nephrotoxicity / kidney injury (Male C57BL/6 mice; PACAP38 compared with [Iac1]PACAP38) | cisplatin-induced increase in kidney levels of interferon γ (IFN-γ) (Male C57BL/6 mice; [2]) | cisplatin-induced increase in kidney levels of monocyte chemotactic protein 1 (MCP-1, CCL2) (Male C57BL/6 mice; [2]) | cisplatin-induced increase in kidney levels of tumor necrosis factor-α (TNF-α) (Male C57BL/6 mice; [2]) | cisplatin-induced increase in serum cystatin C levels (Male C57BL/6 mice; [2]) | cisplatin-induced body weight loss (Male C57BL/6 mice; cisplatin 20 mg/kg i.p., 20 micrograms peptide i.p. 1 h before and 24 and 48 h after, at sacrifice) | cisplatin-induced increase in serum creatinine levels (Male C57BL/6 mice; cisplatin 20 mg/kg i.p., 20 micrograms peptide i.p. 1 h before and 24 and 48 h after, at sacrifice 24 h after final injection) | kidney function of cisplatin-injected mice (Male C57BL/6 mice; summary of FIGS. 3 and 4) | inflammatory response in the kidney of cisplatin-injected mice (Male C57BL/6 mice; summary of FIGS. 6-8 (TNF-α, IFN-γ, MCP-1)) | reduction of the infarct volume (rat; continuous i.v. infusion beginning 4 hours after start of 2-h MCAO) | reduction of the infarct volume (rat; continuous i.v. infusion beginning 8 hours after start of 2-h MCAO) | reduction of the infarct volume (rat; continuous i.v. infusion beginning 12 hours after start of 2-h MCAO)
[^125I]-PACAP38: 125I-radiolabelled PACAP38 used for half-life in rats | 5 to 6 min |  |  |  |  |  |  |  |  |  |  |  | 
PACAP38: native human pituitary adenylate cyclase-activating polypeptide, α-amidated peptide with 38 amino acids |  | approximately equipotent; also recorded: potent cytoprotectants | reduction | reduction | reduction | reduction | reduction; also recorded: significantly reversed the weight lost | reduction | significantly restored kidney function | significantly blunted the inflammatory response | approximately 51% | ~22% | ~12%
